Test results from patent US20100179127A1, “PYRIMIDINE DERIVATIVES” (priority 2005, published 2010).
Structures can show the parent of a compound that is named as a salt.

Experiments:
[1] = biological target: T1, human GABA-B1b/rat GABA-B2 (UniProt O88871+Q9UBS5); experiment: GTPγ[35S] binding, enhancement of GABA-induced binding; format: biochemical; conditions: relative to basal activity
T1 construct: expressed in transfected cells; host or cells: CHO-K1 cell line (membranes)
Description: In the functional GTP(γ)^35S assay (Lorenzen A, Fuss M, Vogt H, Schwabe U. Measurement of guanine nucleotide-binding protein activation by A1 adenosine receptor agonists in bovine brain membranes. Stimulation of guanosine-5′-O-(3-[^35S]thio)triphosphate binding. Mol. Pharmacol. 1993; 44:115-123) the agents of the invention enhance the GABA-induced GTP( ? )^35S binding at recombinant GABAB receptors with EC50 values of about 0.1 μM to about 50 μM.
GTPγ[^35S] binding. The assay mixtures contained 10 μg f membranes from a human GABA-B1b/rat GABA-B2 expressing CHO-K1 cell line in 50 mM Tris-HCl buffer, pH 7.7; 10 mM MgCl2; 1.8 mM CaCl2; 100 mM NaCl 30 μM guanosine 5′-diphosphate (30 μM; Sigma), 0.2 nM [^35S]GTP(γ)S, and test compounds (Urwyler et al, 2001). 96-well Packard Pico-plates (300 μl volume) were used. Non-specific binding was measured in the presence of unlabelled GTP(γ)S (10 μM, Sigma). The reagents were incubated for 40 min at room temperature and subsequently filtered (Packard unifilter-GF/C). After two washes with assay buffer as above the plates were dried for one hour at 50° C., 50 μl of scintillation solution (Microscint) was added and the radioactivity counted. For data analysis, non-specific binding was subtracted from all the other values; the compound effects were expressed relative to basal activity. Prism 3.0 software (Graph Pad software, San Diego, Calif.) was used for all data calculations. (Urwyler S, Mosbacher J, Lingenhoehl K, Heid J, Hofstetter K, Froestl W, Bettler B, Kaupmann K. Mol. Pharmacol. 2001, 60:963-71).

T1 sequence (Q9UBS5 1-844 isoform Q9UBS5-2): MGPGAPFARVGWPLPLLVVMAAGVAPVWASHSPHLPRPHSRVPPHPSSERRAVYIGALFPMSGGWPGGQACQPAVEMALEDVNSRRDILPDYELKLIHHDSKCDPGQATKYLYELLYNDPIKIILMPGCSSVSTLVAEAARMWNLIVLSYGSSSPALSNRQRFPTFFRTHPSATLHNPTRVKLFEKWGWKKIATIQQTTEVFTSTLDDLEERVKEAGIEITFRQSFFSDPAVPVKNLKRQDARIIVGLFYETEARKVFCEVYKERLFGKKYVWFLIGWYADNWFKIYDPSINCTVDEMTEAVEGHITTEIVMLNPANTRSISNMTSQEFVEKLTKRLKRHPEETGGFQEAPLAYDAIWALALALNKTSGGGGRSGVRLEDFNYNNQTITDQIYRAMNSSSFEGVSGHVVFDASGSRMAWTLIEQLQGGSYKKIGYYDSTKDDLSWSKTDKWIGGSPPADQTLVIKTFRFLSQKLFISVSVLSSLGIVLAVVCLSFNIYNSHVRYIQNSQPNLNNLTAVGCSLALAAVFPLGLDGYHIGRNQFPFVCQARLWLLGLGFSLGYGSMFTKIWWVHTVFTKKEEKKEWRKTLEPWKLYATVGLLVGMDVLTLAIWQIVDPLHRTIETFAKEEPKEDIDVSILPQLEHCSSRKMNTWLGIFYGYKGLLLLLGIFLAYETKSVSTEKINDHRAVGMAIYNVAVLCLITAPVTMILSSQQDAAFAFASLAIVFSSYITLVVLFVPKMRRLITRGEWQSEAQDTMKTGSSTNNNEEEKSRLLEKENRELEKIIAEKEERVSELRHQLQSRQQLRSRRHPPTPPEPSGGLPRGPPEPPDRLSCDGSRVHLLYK
T1 sequence (O88871 41-940): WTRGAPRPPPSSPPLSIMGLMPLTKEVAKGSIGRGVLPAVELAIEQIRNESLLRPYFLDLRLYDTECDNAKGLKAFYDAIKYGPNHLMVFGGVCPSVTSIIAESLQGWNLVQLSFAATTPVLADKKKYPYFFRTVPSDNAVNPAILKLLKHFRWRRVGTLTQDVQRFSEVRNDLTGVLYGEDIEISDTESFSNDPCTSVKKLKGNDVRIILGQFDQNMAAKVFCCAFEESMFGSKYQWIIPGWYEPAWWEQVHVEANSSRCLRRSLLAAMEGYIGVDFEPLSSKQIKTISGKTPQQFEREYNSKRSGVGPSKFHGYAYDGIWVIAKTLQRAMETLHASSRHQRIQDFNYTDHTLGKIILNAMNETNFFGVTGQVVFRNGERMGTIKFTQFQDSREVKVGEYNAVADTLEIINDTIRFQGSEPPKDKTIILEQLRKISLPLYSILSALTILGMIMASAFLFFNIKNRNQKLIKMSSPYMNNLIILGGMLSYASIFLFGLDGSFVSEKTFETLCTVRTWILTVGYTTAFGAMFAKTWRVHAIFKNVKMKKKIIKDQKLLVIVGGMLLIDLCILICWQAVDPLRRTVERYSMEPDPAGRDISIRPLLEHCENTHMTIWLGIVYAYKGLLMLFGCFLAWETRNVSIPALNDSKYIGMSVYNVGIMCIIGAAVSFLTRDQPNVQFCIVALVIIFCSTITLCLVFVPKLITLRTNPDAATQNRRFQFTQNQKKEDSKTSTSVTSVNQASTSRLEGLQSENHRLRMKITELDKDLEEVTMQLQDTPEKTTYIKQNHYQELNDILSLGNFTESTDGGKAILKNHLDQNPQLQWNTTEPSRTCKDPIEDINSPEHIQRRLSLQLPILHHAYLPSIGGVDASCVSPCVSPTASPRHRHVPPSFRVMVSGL

melting point | Structure (SMILES) | other results
103 to 106 °C | Cc1ncc(-c2ccc(Cl)cc2)c(NC2CCCC2)n1 | 
249 to 254 °C | Cc1ncc(-c2cnc(C(F)(F)F)nc2)c(NC2CCCC2)n1 (as salt: hydrochloride) [Example 54, N-cyclopentyl-2-methyl-2′-(trifluoromethyl)-5,5′-bipyrimidin-4-amine hydrochloride] | 
115 to 128 °C | Cc1ccc(-c2c(NC3CCCC3)nc(C)nc2NC2CCCC2)cc1 [Example 20, 5-(4-methylphenyl)-N,N′-dicyclopentyl-2-methylpyrimidine-4,6-diamine] | 
95 to 98 °C | Cc1cccc(-c2c(NC3CCCC3)nc(C)nc2NC2CCCC2)c1 [Example 22, 5-(3-methylphenyl)-N,N′-dicyclopentyl-2-methylpyrimidine-4,6-diamine] | 
252 to 255 °C | Cc1ncc(-c2ccc(C(=O)O)cc2)c(NC2CCCC2)n1 [Example 27, 4-[4-(cyclopentylamino)-2-methylpyrimidin-5-yl]benzoic acid] | 
105 to 108 °C | Cc1ncc(-c2cccc(C(F)(F)F)c2)c(NC2CCCC2)n1 [Example 29, N-cyclopentyl-2-methyl-5-[3-(trifluoromethyl)phenyl]pyrimidin-4-amine] | 
124 to 126 °C | Cc1ncc(-c2cc(C(F)(F)F)cc(C(F)(F)F)c2)c(NC2CCCC2)n1 [Example 30, 5-[3,5-bis(trifluoromethyl)phenyl]-N-cyclopentyl-2-methylpyrimidin-4-amine] | 
143 to 145 °C | COc1ccc(-c2cnc(C)nc2NC2CCCC2)cc1OC [Example 31, N-cyclopentyl-5-(3,4-dimethoxyphenyl)-2-methylpyrimidin-4-amine] | 
226 to 228 °C | Cc1ncc(-c2ccc(C(N)=O)cc2)c(NC2CCCC2)n1 [Example 32, 4-[4-(cyclopentylamino)-2-methylpyrimidin-5-yl]benzamide] | 
185 to 188 °C | Cc1ncc(-c2ccc([N+](=O)[O-])cc2)c(NC2CCCC2)n1 [Example 33, N-cyclopentyl-2-methyl-5-(4-nitrophenyl)pyrimidin-4-amine] | 
176 to 180 °C | Cc1ncc(-c2ccc(C#N)cc2)c(NC2CCCC2)n1 [Example 36, 4-[4-(cyclopentylamino)-2-methylpyrimidin-5-yl]benzonitrile] | 
83 to 86 °C | Cc1ncc(-c2ccc(F)cc2)c(NC2CCCC2)n1 [Example 39, N-cyclopentyl-5-(4-fluorophenyl)-2-methylpyrimidin-4-amine] | 
128 to 132 °C | Cc1ncc(-c2ccc(C(F)(F)F)cc2C(F)(F)F)c(NC2CCCC2)n1 [Example 41, 5-[2,4-bis(trifluoromethyl)phenyl]-N-cyclopentyl-2-methylpyrimidin-4-amine] | 
80 to 84 °C | Cc1ncc(-c2ccccc2C(F)(F)F)c(NC2CCCC2)n1 [Example 44, N-cyclopentyl-2-methyl-5-[2-(trifluoromethyl)phenyl]pyrimidin-4-amine] | 
120 to 132 °C | Cc1ncc(-c2ccc(C(F)(F)F)cc2Cl)c(NC2CCCC2)n1 [Example 45, 5-[2-chloro-4-(trifluoromethyl)phenyl]-N-cyclopentyl-2-methylpyrimidin-4-amine] | 
203 to 210 °C | CC(=O)Nc1ccc(-c2cnc(C)nc2NC2CCCC2)cc1 [Example 46, N-{4-[4-(cyclopentylamino)-2-methylpyrimidin-5-yl]phenyl}acetamide] | 
130 to 133 °C | Cc1ncc(-c2ccc(C(F)(F)F)cn2)c(NC2CCCC2)n1 [Example 47, Cyclopentyl-[2-methyl-5-(5-trifluoromethyl-pyridin-2-yl)-pyrimidin-4-yl]-amine] | 
133 to 134 °C | Cc1ncc2c3ccc(C(F)(F)F)cc3n(C3CCCC3)c2n1 [Example 48, 9-cyclopentyl-2-methyl-7-(trifluoromethyl)-9H-pyrimido[4,5-b]indole] | 
165 to 167 °C | Cc1ncc(-c2ccc3nonc3c2)c(NC2CCCC2)n1 [Example 49, 5-(2,1,3-benzoxadiazol-5-yl)-N-cyclopentyl-2-methylpyrimidin-4-amine] | 
159 to 162 °C | C#Cc1nc(C)nc(NC2CCCC2)c1-c1ccc(C(F)(F)F)cc1 [Example 50, N-cyclopentyl-6-ethynyl-2-methyl-5-[4-(trifluoromethyl)phenyl]pyrimidin-4-amine] | 
254 to 259 °C | Cc1ncc(-c2ccc(P(=O)(O)O)cc2)c(NC2CCCC2)n1 [Example 51, {4-[4-(cyclopentylamino)-2-methylpyrimidin-5-yl]phenyl}-phosphonic acid] | 
137 to 141 °C | Cc1ncc2c3ccc(C(F)(F)F)cc3c(=O)n(C3CCCC3)c2n1 [Example 53, 5-cyclopentyl-3-methyl-8-(trifluoromethyl)pyrimido[4,5-c]-isoquinolin-6(5H)-one] | 
90 to 93 °C | Cc1ncc(C#Cc2ccc(C(F)(F)F)cc2)c(NC2CCCC2)n1 [Example 55, N-cyclopentyl-2-methyl-5-{[4-(trifluoromethyl)phenyl]ethynyl}-pyrimidin-4-amine] | 
191 to 196 °C | Cc1ncc(-c2ccc(C(F)(F)F)cc2)c(NC2CCCCNC2=O)n1 (centres unmarked) [Example 62, 3-[2-Methyl-5-(4-trifluoromethyl-phenyl)-pyrimidin-4-ylamino]-azepan-2-one] | Biological activity (%) ([1]; 1 μM of GABA, 2.5 μM of Cpd): 77%; Biological activity (%) ([1]; 1 μM of GABA, 25 μM of Cpd): 129%; Biological activity (%) ([1]; 20 μM of GABA, 2.5 μM of Cpd): 159%; Biological activity (%) ([1]; 20 μM of GABA, 25 μM of Cpd): 192%
70 to 71 °C | CCc1nc(NC2CCCC2)c(-c2ccccc2)c(NC2CCCC2)n1 [Example 65, N,N′-Dicyclopentyl-2-ethyl-5-phenyl-pyrimidine-4,6-diamine] | 
